Laboratory results: patent publication US9181266B2, “2-piperidin-1-yl-acetamide compounds for use as tankyrase inhibitors” (NOVARTIS AG, priority 2011, dated 2015)

Tests used:
[1] = molecular target: human tankyrase 1 PARP catalytic domain, TNKS1P (Homo sapiens (Human), UniProt O95271); assay: TNKS1 autoparsylation assay (LC/MS detection of nicotinamide); conditions: read-out: TNKS1 AP IC50, 20 nM enzyme, 250 μM β-NAD+, 60 min
[2] = test system: Non-small lung cancer ABC-1 cells; assay: Cellular proliferation assay (CellTiter-Glo); format: cell-based; conditions: Homo sapiens, 72 h; ABC-1 cells, 3 days of compound treatment; read-out: ABC-1 IC50
Method: Cellular Proliferation Assay to Determine Compound Inhibition of Cancer Cell Growth
Viable cells were measured after 3 days of compound treatment using the CellTiter-Glo assay (Promega, G7570). Assay was performed following the manufacture protocol.

[3] = test system: Axin2 protein in SW480 cells; assay: Cellular ELISA assay of Axin2 protein stabilization; format: cell-based; conditions: Homo sapiens, 24 hrs, read-out: Axin AC50
Method: Cellular ELISA Assay to Determine Compound Effect on Stabilizing the Axin2 Protein Compound activity in stabilizing the Axin2 protein was measured by Sandwich Enzyme-Linked Immuosorbent (ELISA) assay in the colorectal cell line SW480. 30,000 SW480 cells were seeded per well in 96-well plate and incubated overnight prior to compound treatment. […] Cells were then washed with 100 μL of cold Phosphate Buffer Saline (PBS), and lysed in 125 μl of cold 1× lysis buffer (Cell Signaling Technology, 9803) supplemented with Protease inhibitor (Roche, 11836170) and Phosphatase inhibitors (Sigma, P2850, P5726). For the ELISA assay, anti Axin-2 capture antibody (Strategic Diagnostics) antibody was diluted to a concentration of 1 μg/ml (1:1000) in Carbonate Coating buffer, pH 9.2 (Sigma, C3041-50CAP). […], of the diluted anti Axin-2 capture antibody per well was then used to coat the 96-well ELISA plate (Thermo Electron Corp., MicroLite 1 flat bottom plate #7571) overnight at 4° C. […] After blocking, plates were then washed three times with 300 μl/well of wash solution. 100 μL of prepared SW480 cell lysate was then added to each well and incubated at room temperature for 2 hours while shaking gently. After washing, 100 μL of Biotinylated anti-Axin2 antibody (CST, 2151) was added to each well and incubated room temperature for 2 hours. 100 μL of Streptavidin-HRP (R&D systems, DY998) diluted 1:200 in 1% BSA/PBS was then added in each well and incubate for 30 mins at R/T in the dark.

[4] = molecular target: tankyrase 2 protein PARP domain, TNKS2P (Homo sapiens (Human), UniProt Q9H2K2); assay: TNKS2 autoparsylation assay (LC/MS detection of nicotinamide); conditions: read-out: TNKS2 AP IC50, 20 nM enzyme, 250 μM β-NAD+, 60 min
Chain of tankyrase 2 protein PARP domain, TNKS2P (Q9H2K2 959-1164): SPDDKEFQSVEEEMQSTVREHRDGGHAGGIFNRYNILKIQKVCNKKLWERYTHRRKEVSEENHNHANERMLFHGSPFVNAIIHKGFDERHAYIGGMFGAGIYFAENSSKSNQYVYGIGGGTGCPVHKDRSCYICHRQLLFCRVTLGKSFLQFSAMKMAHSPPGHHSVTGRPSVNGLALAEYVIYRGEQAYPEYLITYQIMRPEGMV

[5] = test system: Wnt ligand-induced signaling in HEK293 cells; assay: Wnt-responsive Super-TOpFlash (STF) luciferase reporter gene assay; format: cell-based; conditions: Homo sapiens, Wnt3A condition medium
Method: Cellular Reporter Gene Assay to Determine Compound Inhibition of Wnt Signaling Activity
Compound activity in inhibiting Wnt ligand-induced signaling was measured using a Wnt-responsive Super-TOpFlash (STF) luciferase reporter gene assay in HEK293 cells. On day 1 of the assay, cells were plated at a density of 8000 cells per well of 384-well plate in 25 μl medium containing 5% fetal bovine serum (FBS). On the second day, […] condition medium (CM) produced from mouse L cells was added to the cells to induce Wnt signaling, followed by addition of 5 μL of compounds each well in 10-point serial dilution. On the third day, the luciferase activity was measured by the Bright-Glo™ Luciferase Assay System following manufacture's protocol (Promega, E2620). The Inhibition was calculated as: (Maximum Wnt-induced signaling−Sample)/(Maximum Wnt-induced signaling−Background)*100. “Maximum Wnt-induced signaling” is the STF signal level induced by 20% Wnt3A CM without compound; and “Background” is the STF signal level without the addition of Wnt3A CM or compound.

Chain of human tankyrase 1 PARP catalytic domain, TNKS1P (O95271 1112-1317): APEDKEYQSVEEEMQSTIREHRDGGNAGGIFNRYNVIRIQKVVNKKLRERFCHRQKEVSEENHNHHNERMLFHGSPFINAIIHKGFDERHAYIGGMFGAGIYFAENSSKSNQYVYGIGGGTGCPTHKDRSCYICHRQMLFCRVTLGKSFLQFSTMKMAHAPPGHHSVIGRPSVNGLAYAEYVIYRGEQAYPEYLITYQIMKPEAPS

SMILES	IC50 [1] [nM]	IC50 [2] [nM]	AC50 [3] [nM]	IC50 [4] [nM]	IC50 [5] [nM]
O=C(CN1CCC(C(=O)c2ccc(F)cc2)CC1)NCc1nc2c(c(=O)[nH]1)COCC2 [Example 1, 2-(4-(4-Fluorobenzoyl)piperidin-1-yl)-N-((4-oxo-4,5,7,8-tetrahydro-3H-pyrano[4,3-d]pyrimidin-2-yl)methyl)acetamide]	64 ± 8	1050 ± 390	880 ± 210	–	–
COc1ccc(C(=O)C2CCN(CC(=O)N(Cc3nc4c(c(=O)[nH]3)COCC4)CC3CC3)CC2)cc1 [Example 5, N-Cyclopropylmethyl-2-[4-(4-methoxy-benzoyl)-piperidin-1-yl]-N-(4-oxo-3,5,7,8-tetrahydro-4H-pyrano[4,3-d]pyrimidin-2-ylmethyl)-acetamide]	15.5 ± 3.5	32 ± 4	60 ± 60	–	–
O=C(c1ccc(F)cc1)C1CCN(CC(=O)N(Cc2nc3c(c(=O)[nH]2)COCC3)Cc2cccs2)CC1 [Example 13, 2-(4-(4-Fluorobenzoyl)piperidin-1-yl)-N-((4-oxo-4,5,7,8-tetrahydro-3H-pyrano[4,3-d]pyrimidin-2-yl)methyl)-N-(thiophen-2-ylmethyl)acetamide]	15.4 ± 2.3	40	26 ± 8	–	–
O=C(c1ccc(F)cc1)C1CCN(CC(=O)N(Cc2ccncc2)Cc2nc3c(c(=O)[nH]2)COCC3)CC1 [Example 20, 2-(4-(4-Fluorobenzoyl)piperidin-1-yl)-N-((4-oxo-4,5,7,8-tetrahydro-3H-pyrano[4,3-d]pyrimidin-2-yl)methyl)-N-(pyridin-4-ylmethyl)acetamide]	845 ± 12	–	–	206 ± 2	2390 ± 250
O=C(c1ccc(F)cc1)C1CCN(CC(=O)N(Cc2cccnc2)Cc2nc3c(c(=O)[nH]2)COCC3)CC1 [Example 21, 2-(4-(4-Fluorobenzoyl)piperidin-1-yl)-N-((4-oxo-4,5,7,8-tetrahydro-3H-pyrano[4,3-d]pyrimidin-2-yl)methyl)-N-(pyridin-3-ylmethyl)acetamide]	214 ± 2	–	–	42 ± 1	460 ± 280
O=C(c1ccc(F)cc1)C1CCN(CC(=O)N(Cc2ccccn2)Cc2nc3c(c(=O)[nH]2)COCC3)CC1 [Example 22, 2-(4-(4-Fluorobenzoyl)piperidin-1-yl)-N-((4-oxo-4,5,7,8-tetrahydro-3H-pyrano[4,3-d]pyrimidin-2-yl)methyl)-N-(pyridin-2-ylmethyl)acetamide]	120 ± 2	540 ± 280	360 ± 190	–	–
CC(C)CN(Cc1nc2c(c(=O)[nH]1)COCC2)C(=O)CN1CCC(C(=O)c2ccc(F)cc2)CC1 [Example 26, 2-(4-(4-Fluorobenzoyl)piperidin-1-yl)-N-isobutyl-N-((4-oxo-4,5,7,8-tetrahydro-3H-pyrano[4,3-d]pyrimidin-2-yl)methyl)acetamide]	70 ± 7	545	473 ± 36	–	–
CN(Cc1nc2c(c(=O)[nH]1)COCC2)C(=O)CN1CCC(C(=O)c2ccc(F)cc2)CC1 [Example 30]	241 ± 30	–	6000 ± 500	–	–
CCCN(Cc1nc2c(c(=O)[nH]1)COCC2)C(=O)CN1CCC(C(=O)c2ccc(F)cc2)CC1 [Example 34, 2-(4-(4-Fluorobenzoyl)piperidin-1-yl)-N-((4-oxo-4,5,7,8-tetrahydro-3H-pyrano[4,3-d]pyrimidin-2-yl)methyl)-N-propylacetamide]	46 ± 1	–	1010 ± 70	–	–
C[C@@H](c1ccc(F)cc1)N(Cc1nc2c(c(=O)[nH]1)COCC2)C(=O)CN1CCC(C(=O)c2ccc(F)cc2)CC1 [Example 35, (S)-2-(4-(4-Fluorobenzoyl)piperidin-1-yl)-N-(1-(4-fluorophenyl)ethyl)-N-((4-oxo-4,5,7,8-tetrahydro-3H-pyrano[4,3-d]pyrimidin-2-yl)methyl)acetamide]	256 ± 4	–	–	68 ± 1	179 ± 20
O=C(c1ccc(F)cc1)C1CCN(CC(=O)N(Cc2nc3c(c(=O)[nH]2)COCC3)Cc2ccc(S(=O)(=O)N3CCOCC3)s2)CC1 [Example 47, 2-[4-(4-Fluoro-benzoyl)-piperidin-1-yl]-N-[5-(morpholine-4-sulfonyl)-thiophen-2-ylmethyl]-N-(4-oxo-3,5,7,8-tetrahydro-4H-pyrano[4,3-d]pyrimidin-2-ylmethyl)-acetamide]	561 ± 49	–	5000 ± 2300	66 ± 2	1830 ± 390
COc1ccc(-c2nnc(C3CCN(CC(=O)NCc4nc5c(c(=O)[nH]4)COCC5)CC3)o2)cc1 [Example 56, 2-{4-[5-(4-Methoxy-phenyl)-[1,3,4]oxadiazol-2-yl]-piperidin-1-yl}-N-(4-oxo-3,5,7,8-tetrahydro-4H-pyrano[4,3-d]pyrimidin-2-ylmethyl)-acetamide]	548 ± 39	641	–	89 ± 3	207 ± 21
O=C(CN1CCC(c2n[nH]c3cc(F)ccc23)CC1)NCc1nc2c(c(=O)[nH]1)COCC2 [Example 57, 2-[4-(6-Fluoro-1H-indazol-3-yl)-piperidin-1-yl]-N-(4-oxo-3,5,7,8-tetrahydro-4H-pyrano[4,3-d]pyrimidin-2-ylmethyl)acetamide]	1210 ± 100	649	–	270 ± 10	207 ± 35
COc1ccc2c(C3CCN(CC(=O)NCc4nc5c(c(=O)[nH]4)COCC5)CC3)n[nH]c2c1 [Example 58, 2-[4-(6-Methoxy-1H-indazol-3-yl)-piperidin-1-yl]-N-(4-oxo-3,5,7,8-tetrahydro-4H-pyrano[4,3-c]pyrimidin-2-ylmethyl)-acetamide]	1490 ± 50	> 10000	–	311 ± 39	4500 ± 400
O=C(CN1CCC(n2cc(-c3ccccc3)cn2)CC1)NCc1nc2c(c(=O)[nH]1)COCC2 [Example 59, N-(4-Oxo-3,5,7,8-tetrahydro-4H-pyrano[4,3-d]pyrimidin-2-ylmethyl)-2-[4-(4-phenyl-pyrazol-1-yl)-piperidin-1-yl]-acetamide]	2250 ± 23	8170	–	188 ± 16	3940 ± 120
COc1ccc(-c2cnn(C3CCN(CC(=O)NCc4nc5c(c(=O)[nH]4)COCC5)CC3)c2)cc1 [Example 60, 2-{4-[4-(4-Methoxy-phenyl)-pyrazol-1-yl]-piperidin-1-yl}-N-(4-oxo-3,5,7,8-tetrahydro-4H-pyrano[4,3-d]pyrimidin-2-ylmethyl)-acetamide]	3800 ± 100	5850	–	386 ± 7	1100 ± 110
O=C(c1ccc(C(F)(F)F)cc1)C1CCN(CC(=O)N(Cc2nc3c(c(=O)[nH]2)COCC3)CC(F)F)CC1 [Example 75, N-(2,2-Difluoro-ethyl)-N-(4-oxo-3,5,7,8-tetrahydro-4H-pyrano[4,3-d]pyrimidin-2-ylmethyl)-2-[4-(4-trifluoromethyl-benzoyl)-piperidin-1-yl]-acetamide]	73 ± 5	6050	–	17 ± 1	290 ± 130
COc1ccc2c(c1)CCCN2C(=O)C1CCN(CC(=O)NCc2nc3c(c(=O)[nH]2)COCC3)CC1 [Example 80, 2-(4-(6-Methoxy-1,2,3,4-tetrahydroquinoline-1-carbonyl)piperidin-1-yl)-N-((4-oxo-4,5,7,8-tetrahydro-3H-pyrano[4,3-d]pyrimidin-2-yl)methyl)acetamide]	> 19000	–	–	31200	6400 ± 1100
O=C(CN1CCC(C(=O)N2CCc3c(Cl)cccc3C2)CC1)NCc1nc2c(c(=O)[nH]1)COCC2 [Example 81, 2-(4-(5-Chloro-1,2,3,4-tetrahydroisoquinoline-2-carbonyl)piperidin-1-yl)-N-((4-oxo-4,5,7,8-tetrahydro-3H-pyrano[4,3-d]pyrimidin-2-yl)methyl)acetamide]	761 ± 18	–	–	244 ± 24	> 10000
